Laboratory results taken from patent US12360118B2, “Method for protein kinase activity ranking” (KINOMICA LIMITED, priority 2015, dated 2025).

How the values were obtained:
[1] = system: eight haematological cell-lines; experiment: Viability of haematological cell-lines (Guava ViaCount) and sensitivity coefficient (SC); type: cell-based; conditions: nine kinase inhibitors of Table 1
Experimental: B-cell lymphoma and leukemia cell-lines were routinely maintained in RPMI-1640 medium supplemented with 10% fetal-bovine serum (FBS) and 100 U·mL^−1 penicillin/streptomycin (P/S). Cells were maintained at a confluency of 0.5-2.0×10^6 cells·mL^−1. Stromal cells were grown in IMDM medium (supplemented with 10% FBS and 100 U·mL^−1 P/S) and maintained at a confluency of 2.0-30.0×10^6 cells in 175 cm^2 flasks. MS-5 conditioned IMDM medium was generated by growing stromal cells in IMDM for 3 days. All cells were kept at 37° C. in a humidified atmosphere at 5% CO2.
Cell-lines were seeded in 96 well plates (10,000 cells-well-), left overnight and treated with vehicle, or 1 to 1000 nM of AZD-5438 (CDK2i;), GF-109203X (PKCαi; Tocris), PF-3758309 (PAKi; Calbiochem), Trametinib (MEKi; Selleckchem), MK-2206 (AKTi; Selleckchem), KU-0063794 (mTORi; Chemdea) or TAK 715 (P38αi;). Cells were also treated with 0.01 to 10 μM of PKC-412 (PKC/Flt3i; Tocris) or 0.1 to 10 μM of TBB (CK2i; Sigma). After 72 h, cells were stained with Guava ViaCount reagent (Millipore) as indicated by the manufacturer and cell number and viability was measured using a Guava EasyCyte Plus instrument. […] After 72 h, cells were stained with Guava ViaCount reagent and cell number and viability was measured. […] Flow cytometry data were analyzed using CytoSoft (v2.5.7). IC50 values were calculated using Graphpad PRISM (v5.03). […]

primary AML cells = experiment: Viability of primary AML cells (Guava ViaCount), IC50 and SC; type: cell-based, human; conditions: 36 primary AML cases; threshold 50% reduction in viability at 1 μM
Experimental: All patients gave informed consent for the storage of their blood cells for research purposes. Each procedure was conducted in accordance with the East London and City Research Ethics Committee, as previously described (Miraki-Moud, F. et al. Blood 125, 4060-4068 (2015)). All studies comply with the rules of the Review Board and by the revised Helsinki protocol. Peripheral blood was extracted from AML patients at St Bartholomew's Hospital and mononuclear cells, isolated using Ficoll gradient followed by red cell lysis, were stored in liquid N2. Primary AML blasts were thawed following standard procedures: briefly, vials were defrosted at 37 C and exposed to 500 μg of DNAse (Sigma) for 5 minutes. […] Cell number and viability were determined by trypan blue staining using a Vi-CELL XR cell viability analyser (Beckman Coulter).
Cell-lines were seeded in 96 well plates (10,000 cells-well-), left overnight and treated with vehicle, or 1 to 1000 nM of AZD-5438 (CDK2i;), GF-109203X (PKCαi; Tocris), PF-3758309 (PAKi; Calbiochem), Trametinib (MEKi; Selleckchem), MK-2206 (AKTi; Selleckchem), KU-0063794 (mTORi; Chemdea) or TAK 715 (P38αi;). […] After 72 h, cells were stained with Guava ViaCount reagent (Millipore) as indicated by the manufacturer and cell number and viability was measured using a Guava EasyCyte Plus instrument. […] Flow cytometry data were analyzed using CytoSoft (v2.5.7). […]

CDK2 = CDK2 (Homo sapiens, UniProt P24941); conditions: off-target of the PKCα inhibitor; cited from earlier work
tyrosine kinases = experiment: K-score (Kinase Activity Ranking) of cells after pervanadate treatment, LC-MS/MS phosphoproteomics; type: cell-based; conditions: 1 mM sodium pervanadate, 30 min; lysates mixed with untreated lysates
Experimental: Technical replicates were averaged and peak areas for each phosphopeptide ion were then normalized to the sum of peptide intensities for each sample. […] Kinase Activity Ranking (KAR) was calculated for kinase K using the equation below (where m=the number of phosphorylation sites in the dataset matched to kinase K; α=the normalized intensity of the phosphorylation site i; l=the total number of phosphorylation sites in the dataset regardless of any kinase-substrate association; β=the normalized intensity of the phosphorylation site j; t=the total number of known target phosphorylation sites in the PhosphoSitePlus database for kinase K). […]
P31/Fuj cells were exposed to 1 mM sodium pervanadate or left untreated during 30 min (Sodium pervanadate was prepared by mixing 30% H2O2 and 100 mM Na3VO4 pH 8.0 at 1:100 ratio during 15 min). […] After homogenization and protein quantification, treated and untreated cell lysates were mixed to a final protein concentration of 1.0 μg·μL^−1. […]
We first investigated the reproducibility and quantitative nature of Kinase Activity Ranking (KAR, which produces K-scores) as a measure of net kinase activity. […] To test the reproducibility of the analysis, we performed this experiment on three independent occasions and each was analyzed in analytical triplicate. […]

Row | Molecule | Ranking of the kinase inhibitors based on their SCs (sensitivity coefficients) [1] | Number of cases sensitive to this inhibitor only (primary AML cells) | other results
1 | Cc1ncc(-c2ccnc(Nc3ccc(S(C)(=O)=O)cc3)n2)n1C(C)C [CDK2i, AZD5438] | ranked the highest |  | 
2 | O=C(O)c1ccc2c(c1)nc(Nc1cccc(Cl)c1)c1ccncc12 [CK2i, CX4945] |  | Five | 
3 | CC(=O)Nc1cccc(-n2c(=O)n(C3CC3)c(=O)c3c(Nc4ccc(I)cc4F)n(C)c(=O)c(C)c32)c1 [MEK1i, GSK1120212] |  | three | 
4 | Cc1nc(Nc2[nH]nc3c2CN(C(=O)N[C@H](CN(C)C)c2ccccc2)C3(C)C)c2sccc2n1 [PAKi, PF03758309] | ranked the highest |  | 
5 | CN(C)CCCn1cc(C2=C(c3c[nH]c4ccccc34)C(=O)NC2=O)c2ccccc21 [PKCαi, GF109203X] |  |  | Inhibition of CDK2 (CDK2): high potency
6 | sodium pervanadate [pV] |  |  | Change of the K-Score of tyrosine kinases (tyrosine kinases): increase
